Reference: patent US7335770B2, “Triazine compounds and their analogs, compositions, and methods” (Reddy U5 Therapeutics, Inc., priority 2004, dated 2008)
Where two headings read alike, the source gives them in different places.

Tested on: smooth muscle cells (SMC)
Experiment: anti-proliferation assay (perlecan)
Assay type: cell-based
Details: for activity in anti-proliferation assay (Perlecan), in words: using the same activity scale used in Table 3
Method: The activity scale used in Table 3 as follows (numbers are inclusive): “+++” represents IC50 of less than about 3 μM; “++” represents IC50 of between about 3 and about 7 μM; and “+” represents IC50 of greater than about 7 μM. In addition, compounds, to include compositions thereof, encompassed within the scope of structures Ia-XXIVa, respectively, or listed in Tables 1A and 1E may be likewise employed in this embodiment and/or aspect of the present invention. Further, any hydrogen atoms that are required for any atom to attain its usual valence in a structure presented in Table 3, whether a carbon atom or a heteroatom, should be inferred if it is not specifically indicated.
In addition to the above compounds, the following compounds and compositions comprising these compounds are active in an anti-proliferation assay (Perlecan). These compounds and compositions comprising these compounds are, among other things, generally useful for treating cardiovascular disorders associated with proliferative activity. Specifically, these compounds include N^2-cycloheptyl-N^4-(3-fluoro-4-methoxyphenyl)-N^6-methyl-N^6-(1-methyl-piperidin-4-yl)-1,3,5-triazine-2,4,6-triamine, and N^2-cycloheptyl-N^4-methyl-N^4-(1-methyl-piperidin-4-yl)-N^6-naphthalen-2-yl-1,3,5-triazine-2,4,6-triamine.
Methods for identifying the activity and screening for one or more of these compounds or molecules that induce synthesis of proteoglycans such as HSPG (heparan sulfate proteoglycan) are taught in U.S. patent application Ser. No. 10/091,357, which is incorporated herein in its entirety. Assays of effects of compounds in vivo are also taught in the incorporated references and are known to those skilled in the art. In general, methods comprise the addition of such compounds to assays and measurement of HSPG synthesis including, but not limited to, the production of syndecans, glypicans and perlecans, for example, syndecans 1, 2 and 4; and glypican-1. Other assays that can be used to determine the activity of the compounds of the present invention include other methods for measuring the induction of perlecan synthesis. For example, in one assay, perlecan is induced in cells by certain inducers, and the response is measured. Compounds of the present invention are then added to a replicate assay and the effect on perlecan induction is determined. Using such methods, compounds are determined that can either inhibit perlecan, elevate induction of perlecan, or that have no effect at all. Those compounds that are effective as therapeutic agents can then be used in animals, humans or patients with cellular proliferation disease aspects, such as vascular-associated diseases or SMC proliferation pathologies.
Another assay for determining compounds having SMC effects comprises adding a composition suspected of affecting SMC proliferation to smooth muscle cells in growth medium or serum-free medium. The change in cell proliferation can be measured by methods known to those skilled in the art, such as incorporation of labeled nucleotides into dividing cells' DNA, and compared to the proliferation of cells which are not treated with the compound. Other measurements include directly determining levels of HSPG synthesis by measuring the amount or change in amount of HSPG such as with ELISA for HSPGs, and compared to the amount of HSPG synthesis in untreated cells. Other indirect or direct measurement are contemplated by the present invention and are known to those skilled in the art. For example, such methods include, but are not limited to, measurement of RNA levels, RT-PCR, Northern blotting, Western blotting promoter-based assays to identify compounds that affect one or more proteoglycans and assays for proteoglycan biological activity shown by recombinant proteins, partially purified proteins, or lysates from cells expressing proteoglycans in the presence or absence of compounds of interest.

[1] = anti-proliferation assay (perlecan), class of IC50, read-out: Activity (note 1)
[2] = anti-proliferation assay (perlecan), some cells print no unit, read-out: Avg IC-50

SMILES: COc1ccc(Nc2nc(NNC(=O)CCCCC3SCC4NC(=O)NC43)nc(NC3CCCCCC3)n2)cc1Cl (stereo not drawn) [drawing 596, 5-(2-Oxo-hexahydro-thieno[3,4-d]imi-dazol-4-yl)-pentanoic acidN′-[4-(3-chloro-4-methoxy-phenyl-amino)-6-cyclo-heptylamino-[1,3,5]triazine-2-yl]-hy-drazide]
- IC50 (read-out: Activity (note 1)): 3 to 7 µM
- IC50 (read-out: Avg IC-50): 5 µM

SMILES: COc1ccc(Nc2nc(NC3CCCCCC3)nc(Sc3ccccc3)n2)cc1Cl [N-(3-Chloro-4-methoxy-phenyl)-N′-cycloheptyl-6-phenylsulfanyl-[1,3,5]triazine-2,4-diamine]
- activity in anti-proliferation assay (Perlecan), in words: high activity

SMILES: COc1ccc(Nc2nc(NCC3CCCO3)nc(NC3CCCCCC3)n2)cc1Cl (stereo not drawn) [drawing 587, N-(3-Chloro-4-methoxy-phenyl)-N′-cyclo-heptyl-N″-(tetrahydro-furan--2-ylmethyl)-[1,3,5]triazine-2,4,6-tri-amine]
- IC50 [1]: < 3 µM
- IC50 [2]: 1.36 µM

SMILES: CCOC(=O)/C=C/c1ccc(Oc2nc(Nc3ccc(OC)c(Cl)c3)nc(NC3CCCCCC3)n2)cc1 [3-{4-[4-(3-Chloro-4-methoxy-phenylamino)-6-cycloheptylamino-[1,3,5]triazin-2-yloxy]-phenyl}-acrylic acid ethyl ester]
- activity in anti-proliferation assay (Perlecan), in words: high activity

SMILES: COc1ccc(Nc2nc(NC3CCCCCC3)nc(Sc3ccccc3OC)n2)cc1Cl [N-(3-Chloro-4-methoxy-phenyl)-N′-cycloheptyl-6-(2-methoxy-phenylsulfanyl)-[1,3,5]triazine-2,4-diamine]
- activity in anti-proliferation assay (Perlecan), in words: high activity

SMILES: COc1ccc(Nc2nc(NC3CCCCCC3)nc(Oc3ccc(C=O)cc3)n2)cc1Cl [4-[4-(3-Chloro-4-methoxy-phenylamino)-6-cycloheptylamino-[1,3,5]triazin-2-yloxy]-benzaldehyde]
- activity in anti-proliferation assay (Perlecan), in words: high activity

SMILES: COc1ccc(Nc2nc(NC3CCCCCC3)nc(Sc3ccc(F)cc3)n2)cc1Cl [N-(3-Chloro-4-methoxy-phenyl)-N′-cycloheptyl-6-(4-fluoro-phenylsulfanyl)-[1,3,5]triazine-2,4-diamine]
- activity in anti-proliferation assay (Perlecan), in words: high activity

SMILES: COc1ccc(Nc2nc(NCCN)nc(NC3CCCCCC3)n2)cc1Cl [N-(2-Amino-ethyl)-N′-(3-chloro-4-methoxy-phenyl)-N″-cycloheptyl-[1,3,5]triazine-2,4,6-triamine]
- activity in anti-proliferation assay (Perlecan), in words: high activity

SMILES: CN1CCC(N(C)c2nc(Nc3cccc([N+](=O)[O-])c3)nc(NC3CCCCCC3)n2)CC1 [drawing 593, N-Cycloheptyl-N′-methyl-N′-(1-meth-yl-piperidin-4-yl)-N″-(3-ni-tro-phenyl)-[1,3,5]triazine-2,4,6-tri-amine]
- IC50 [1]: < 3 µM
- IC50 [2]: 0.91 µM

SMILES: COc1ccc(Nc2nc(NC3CCCCCC3)nc(Oc3ccc(C=O)cc3)n2)cc1Cl [drawing 582, 4-[4-(3-Chloro-4-methoxy-phenyl-amino)-6-cyclo-heptylamino-[1,3,5]triazin-2-yl-oxy]-benzaldehyde]
- IC50 [1]: 3 to 7 µM
- IC50 [2]: 4.5 µM

SMILES: COc1ccc(Nc2nc(NC3CCCCCC3)nc(OCC3CCCO3)n2)cc1Cl (stereo not drawn) [N-(3-Chloro-4-methoxy-phenyl)-N′-cycloheptyl-6-(tetrahydro-furan-2-ylmethoxy)-[1,3,5]triazine-2,4-diamine]
- activity in anti-proliferation assay (Perlecan), in words: high activity

SMILES: CCN1CCCC(Oc2nc(Nc3ccc(OC)c(Cl)c3)nc(NC3CCCCCC3)n2)C1 (stereo not drawn) [drawing 581, N-(3-Chloro-4-methoxy-phenyl)-N′-cyclo-heptyl-6-(1-ethyl-piper-idin-3-yloxy)-[1,3,5]triazine-2,4-di-amine]
- IC50 [1]: 3 to 7 µM
- IC50 [2]: 4.2 µM

SMILES: COc1ccc(Nc2nc(NC3CCCCCC3)nc(OC(C)C)n2)cc1Cl [N-(3-Chloro-4-methoxy-phenyl)-N′-cycloheptyl-6-isopropoxy-[1,3,5]triazine-2,4-diamine]
- activity in anti-proliferation assay (Perlecan), in words: high activity
